According to patent publication US20240280493A1, “CELLULAR SENSORS BASED ON SURFACE-ENHANCED RAMAN SCATTERING AND APPLICATION THEREOF” (CHINA PHARMACEUTICAL UNIVERSITY, priority 2022, published 2024):

Tested on: γH2AX
Experiment: Impurity genotoxicity assessment with the SERS cell-based sensor (L02 cells, Anti γH2AX@GPMT probe), fold of induction of γH2AX
Settings: 24 h incubation, MMS 50 μg/ml, SA 50 μg/ml, 5-Fu 0.1 μg/ml, NDEA 500 μg/ml, FI > 1.5 judged genotoxic
Description: A human liver cell line L02 is cultured in DMEM containing 10% fetal calf serum, and put in a 37° C. incubator containing 5% CO2, and a sterile operation is performed in an entire process. When the cells grow to a logarithmic phase, L02 is inoculated into a 24-well plate containing a cell slide according to a density of 5000 cells/well, after being attached to a wall, a culture medium is replaced by a SERS probe culture medium with a concentration being 0.05 nM, and incubation is performed for 4 h.
The cell-based sensor culture medium is replaced by a culture medium containing impurities of different concentrations, continuous incubation is performed for 24 h, then the slide is taken out and put in a confocal inverted microscope bright and dark field imaging Raman spectrometer to be tested, the Raman signals of the test group and the control group are compared, and the impurity genotoxicity is assessed.
Methyl methanesulfonate (MMS), a salicylic acid (SA), 5-fluorouracil (5-Fu) and N-nitrosodiethylamine (NDEA) are selected respectively as genotoxic impurities of different structure types to be tested. […]

SMILES	FI value (fold of induction, concentration ratio of effector molecules of test group and control group)
CCN(CC)N=O [NDEA, N-nitrosodiethylamine]	3.59
O=C(O)c1ccccc1O [SA, salicylic acid]	1.02
